Assay results taken from patent publication US9102614B2, “Naphth-2-ylacetic acid derivatives to treat AIDS” (Gilead Sciences, Inc., priority 2010, dated 2015).
Read-outs that look alike come from different tables or passages of the source.

System: HIV-IIIb
Test: Test A: Antiviral Assays in MT4 Cells
Assay type: cell-based
Summary of the method: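 MT-4 cells pre-infected with HIV-IIIb (0.004 m.o.i.) at 37 °C, then plated with 3-fold serially diluted compound (10 concentrations, quadruplicate, RPMI 1640/10% FBS). After 5 days at 37 °C, cell viability read by CellTiter-Glo chemiluminescence; mock-infected cells run in parallel.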

[1] = Human immunodeficiency virus 1, IIIB, MT4, 120 h, MT-4 cells infected with HIV-IIIb (0.004 m.o.i.), 5 days of incubation, CellTiter-Glo chemiluminescence readout, read-out: EC50
[2] = MT-4 cells infected with HIV-IIIb (0.004 m.o.i.), 5 days of incubation, CellTiter-Glo chemiluminescence readout, read-out: EC50

SMILES | EC50 [1] [nM] | also measured
Cc1cc2cc(-c3ccc(Cl)cc3)ccc2c(-c2ccc(Cl)cc2)c1C(OC(C)(C)C)C(=O)O (centres unmarked) [Compound 66, 2-(1,6-Bis(4-chlorophenyl)-3-methylnaphthalen-2-yl)-2-tert-butoxyacetic acid] | 290 | 
Cc1cc2cc(C)c([C@H](OC(C)(C)C)C(=O)O)c(-c3ccc4c5c(ccnc35)CCO4)c2cc1F (atropisomer, axis not shown) [Compound 156] |  | EC50 [2]: 7300 nM
Cc1cc2cc(-c3ccccn3)ccc2c(-c2ccc(Cl)cc2)c1[C@H](OC(C)(C)C)C(=O)O [Compound 63, (S)-2-tert-Butoxy-2-(1-(4-chlorophenyl)-3-methyl-6-(pyridin-2-yl)naphthalen-2-yl)acetic acid] | 99 | 
Cc1cc2ccccc2c(C2=CC(C)(C)CCC2=O)c1[C@H](OC(C)(C)C)C(=O)O [Compound 11, (S)-2-tert-Butoxy-2-(1-(3,3-dimethyl-6-oxocyclohex-1-enyl)-3-methylnaphthalen-2-yl)acetic acid] | 8900 | 
COC(=O)NC(C)(C)C#Cc1ccc2cc(C)c(C(OC(C)(C)C)C(=O)O)c(-c3ccc(Cl)cc3)c2c1 (centres unmarked) [Compound 97, 2-tert-Butoxy-2-(1-(4-chlorophenyl)-7-(3-(methoxycarbonylamino)-3-methylbut-1-ynyl)-3-methylnaphthalen-2-yl)acetic acid] | 300 | 
Cc1cc2c(Cl)cccc2c(-c2ccc(Cl)cc2)c1C(OC(C)(C)C)C(=O)O (centres unmarked) [Compound 45, 2-tert-Butoxy-2-(5-chloro-1-(4-chlorophenyl)-3-methylnaphthalen-2-yl)acetic acid] | 1800 | 
CCc1cc2cc(C)c([C@H](OC(C)(C)C)C(=O)O)c(-c3ccc4c5c(ccnc35)CCO4)c2cc1F [Compound 104, (S)-2-tert-Butoxy-2-((R)-1-(2,3-dihydropyrano[4,3,2-de]quinolin-7-yl)-6-ethyl-7-fluoro-3-methylnaphthalen-2-yl)acetic acid] |  | EC50 [2]: 36 nM
Cc1c(C(OC(C)(C)C)C(=O)O)c(-c2ccc(Cl)cc2)c2ccccc2c1C#CCN(C)C (centres unmarked) [Compound 131, 2-tert-Butoxy-2-(1-(4-chlorophenyl)-4-(3-(dimethylamino)prop-1-ynyl)-3-methylnaphthalen-2-yl)acetic acid] | 62 | 
Cc1cc2ccc(C#CC(C)(C)O)cc2c(-c2ccc(Cl)cc2)c1C(OC(C)(C)C)C(=O)O (centres unmarked) [Compound 69, 2-tert-butoxy-2-(1-(4-chlorophenyl)-7-(3-hydroxy-3-methylbut-1-ynyl)-3-methylnaphthalen-2-yl)acetic acid] | 380 | 
Cc1cc2ccccc2c(-c2ccc(F)c3cccnc23)c1[C@H](OC(C)(C)C)C(=O)O [Compound 10, (2S)-2-tert-Butoxy-2-(1-(5-fluoroquinolin-8-yl)-3-methylnaphthalen-2-yl)acetic acid] | 36000 | 
Cc1cc2cc(-c3cccnc3)ccc2c(-c2ccc(Cl)cc2)c1[C@H](OC(C)(C)C)C(=O)O [Compound 54, (S)-2-tert-Butoxy-2-(1-(4-chlorophenyl)-3-methyl-6-(pyridin-3-yl)naphthalen-2-yl)acetic acid] | 55 | 
Cc1c([C@H](OC(C)(C)C)C(=O)O)c(-c2ccc(Cl)cc2)c2ccccc2c1Br [Compound 150B, (S)-2-(4-bromo-1-(4-chlorophenyl)-3-methylnaphthalen-2-yl)-2-tert-butoxyacetic acid] | 260 | 
Cc1cc2c(F)c(Cl)ccc2c(-c2ccc3c4c(ccnc24)CCO3)c1[C@H](OC(C)(C)C)C(=O)O [Compound 115, (S)-2-tert-Butoxy-2-((R)-6-chloro-1-(2,3-dihydropyrano[4,3,2-de]quinolin-7-yl)-5-fluoro-3-methylnaphthalen-2-yl)acetic acid] |  | EC50 [2]: 37 nM
Cc1cc2ccccc2c(-c2cc(F)cc3cccnc23)c1[C@H](OC(C)(C)C)C(=O)O [Compound 159] |  | EC50 [2]: 1300 nM
Cc1cc2ccccc2c(-c2ccc(C(F)(F)F)c3cccnc23)c1[C@H](OC(C)(C)C)C(=O)O [Compound 175] | 20000 | 
Cc1cc2cc(-c3cn[nH]c3)ccc2c(-c2ccc(Cl)cc2)c1[C@H](OC(C)(C)C)C(=O)O [Compound 57, (S)-2-tert-Butoxy-2-(1-(4-chlorophenyl)-3-methyl-6-(1H-pyrazol-4-yl)naphthalen-2-yl)acetic acid] | 82 | 
Cc1cc2c(Cl)cccc2c(-c2ccc3c4c(ccnc24)CCO3)c1C(OC(C)(C)C)C(=O)O (centres unmarked) [Compound 163] |  | EC50 [2]: 16000 nM
Cc1cc2c(C#CCN(C)C)cccc2c(-c2ccc(Cl)cc2)c1C(OC(C)(C)C)C(=O)O (centres unmarked) [Compound 39, 2-tert-Butoxy-2-(1-(4-chlorophenyl)-5-(3-(dimethylamino)prop-1-ynyl)-3-methylnaphthalen-2-yl)acetic acid] |  | EC50 (Human immunodeficiency virus 1, IIIB, MT4, 120 h): 700 nM
Cc1cc2ccccc2c(-c2cnc3ccccc3c2)c1[C@H](OC(C)(C)C)C(=O)O [Compound 16, (S)-2-tert-Butoxy-2-(3-methyl-1-(quinolin-3-yl)naphthalen-2-yl)acetic acid] | 7000 | 

SMILES | EC50 [1] [nM] | also measured
Cc1cc2cc(C(F)F)ccc2c(-c2ccc3c4c(ccnc24)CCO3)c1[C@H](OC(C)(C)C)C(=O)O [Compound 181, (S)-2-tert-butoxy-2-((R)-6-(difluoromethyl)-1-(2,3-dihydropyrano[4,3,2-de]quinolin-7-yl)-3-methylnaphthalen-2-yl)acetic acid] | 5 | 
Cc1c(C(OC(C)(C)C)C(=O)O)c(-c2ccc(Cl)cc2)c2ccccc2c1Br (centres unmarked) [Compound 126, 2-(4-Bromo-1-(4-chlorophenyl)-3-methylnaphthalen-2-yl)-2-tert-butoxyacetic acid] | 833 | 
Cc1cc2ccccc2c(-c2cc(F)cc3cccnc23)c1[C@H](OC(C)(C)C)C(=O)O [Compound 158] |  | EC50 [2]: 35000 nM
Cc1cc2ccc(C#CC3CC3)cc2c(-c2ccc(Cl)cc2)c1C(OC(C)(C)C)C(=O)O (centres unmarked) [Compound 75, 2-tert-Butoxy-2-(1-(4-chlorophenyl)-7-(cyclopropylethynyl)-3-methylnaphthalen-2-yl)acetic acid] | 980 | 
Cc1c(C(OC(C)(C)C)C(=O)O)c(-c2ccc(Cl)cc2)c2ccccc2c1-c1ccc(N(C)C)nc1 (centres unmarked) [Compound 137, 2-tert-Butoxy-2-(1-(4-chlorophenyl)-4-(6-(dimethylamino)pyridin-3-yl)-3-methylnaphthalen-2-yl)acetic acid] | 130 | 
Cc1cc2ccccc2c(-c2ccc3c4c(ccnc24)CCO3)c1[C@H](OC(C)(C)C)C(=O)O [Compound 5K, (S)-2-tert-Butoxy-2-((S)-1-(2,3-dihydropyrano[4,3,2-de]quinolin-7-yl)-3-methylnaphthalen-2-yl)acetic acid] |  | EC50 [2]: 4600 nM
Cc1cc2cc(F)ccc2c(-c2ccc(Cl)cc2)c1C(OC(C)(C)C)C(=O)O (centres unmarked) [Compound 42, 2-tert-Butoxy-2-(1-(4-chlorophenyl)-6-fluoro-3-methylnaphthalen-2-yl)acetic acid] | 110 | 
CCC(C)(C)O[C@H](C(=O)O)c1c(C)cc2ccccc2c1-c1ccc2c3c(ccnc13)CCO2 [Compound 185, (S)-2-((R)-1-(2,3-dihydropyrano[4,3,2-de]quinolin-7-yl)-3-methylnaphthalen-2-yl)-2-(tert-pentyloxy)acetic acid] |  | EC50 [2]: 24 nM
Cc1c(C(OC(C)(C)C)C(=O)O)c(-c2ccc(Cl)cc2)c2ccccc2c1CN1CCOCC1 (centres unmarked) [Compound 134, 2-tert-Butoxy-2-(1-(4-chlorophenyl)-3-methyl-4-(morpholinomethyl)naphthalen-2-yl)acetic acid] | 150 | 
Cc1cc2ccccc2c(-c2ccc(Cl)cc2)c1[C@H](OC(C)(C)C)C(=O)O [Compound 3K, (S)-2-tert-butoxy-2-(1-(4-chlorophenyl)-3-methylnaphthalen-2-yl)acetic acid] | 56 | 
CCc1cc2cc(C)c([C@H](OC(C)(C)C)C(=O)O)c(-c3ccc4c5c(ccnc35)CCO4)c2cc1F (atropisomer, axis not shown) [Compound 165] | 53000 | 
Cc1cc2cc(-c3cncn3C)ccc2c(-c2ccc(Cl)cc2)c1[C@H](OC(C)(C)C)C(=O)O [Compound 65, (S)-2-tert-butoxy-2-(1-(4-chlorophenyl)-3-methyl-6-(1-methyl-1H-imidazol-5-yl)naphthalen-2-yl)acetic acid] | 190 | 
Cc1cc2cc(Cl)ccc2c(-c2ccc3c4c(ccnc24)CCO3)c1[C@H](OC(C)(C)C)C(=O)O [Compound 68A, (S)-2-tert-Butoxy-2-((R)-6-chloro-1-(2,3-dihydropyrano[4,3,2-de]quinolin-7-yl)-3-methylnaphthalen-2-yl)acetic acid] |  | EC50 [2]: 14 nM
CNC(=O)c1cc2cc(C)c([C@H](OC(C)(C)C)C(=O)O)c(-c3ccc4c5c(ccnc35)CCO4)c2cc1F (atropisomer, axis not shown) [Compound 166] | 16000 | 
Cc1cc2c(C#N)cc(F)cc2c(-c2ccc3c4c(ccnc24)CCO3)c1[C@H](OC(C)(C)C)C(=O)O (atropisomer, axis not shown) [Compound 154] | 29000 | 
Cc1cc2ccc(Br)cc2c(-c2ccc(Cl)cc2)c1C(OC(C)(C)C)C(=O)O (centres unmarked) [Compound 71, 2-(7-Bromo-1-(4-chlorophenyl)-3-methylnaphthalen-2-yl)-2-tert-butoxyacetic acid] | 35000 | 
COc1cccc2c(-c3ccc(Cl)cc3)c(C(OC(C)(C)C)C(=O)O)c(C)cc12 (centres unmarked) [Compound 34, tert-Butoxy-[1-(4-chloro-phenyl)-5-methoxy-3-methyl-naphthalen-2-yl]-acetic acid] | 350 | 
Cc1c(C(OC(C)(C)C)C(=O)O)c(-c2ccc(Cl)cc2)c2ccccc2c1C (centres unmarked) [Compound 127, 2-tert-Butoxy-2-(1-(4-chlorophenyl)-3,4-dimethylnaphthalen-2-yl)acetic acid] | 87 | 
Cc1cc2ccc(CCC3CCCC3)cc2c(-c2ccc(Cl)cc2)c1C(OC(C)(C)C)C(=O)O (centres unmarked) [Compound 90, 2-tert-Butoxy-2-(1-(4-chlorophenyl)-7-(2-cyclopentylethyl)-3-methylnaphthalen-2-yl)acetic acid] | 31000 | 
